# Experimental data taken from patent EP4789665A1, “TREATMENT OF HIS HYPORESPONDERS” (NewAmsterdam Pharma B.V., priority 2021, dated 2023).
# Like-named read-outs stand apart in the source and are kept apart here.
# Experiments:
# [1] = Phase 2 study: plasma obicetrapib concentrations during PK follow-up after end of treatment; format: in vivo, human
# Experimental: The screening period for this study took up to 2-weeks. Afterwards patients were randomized to placebo, 5 mg obicetrapib or 10 mg obicetrapib for an 8-week treatment period. After the treatment period, patients continued for a 4-week safety follow-up and a 15-week PK follow-up.
# (§1) The primary outcome measure was LDL-C (percent change). Secondary outcome measures included ApoB, Non-HDL-C and HDL-C (percent change). The Intent-to-Treat (ITT) Population included all participants randomized into the study. The Modified ITT (mITT) Population included all participants in the ITT Population who receive at least 1 dose of any study drug and have a baseline value for the LDL-C assessment. The Safety Population included all participants who receive at least 1 dose of any study drug. The mITT Population was the primary population for the efficacy analyses. The primary efficacy analysis of the percent change in LDL-C was performed using a mixed model for repeated measures (MMRM) approach. In order to maintain the overall Type I error rate, the secondary efficacy endpoints were tested sequentially at the 0.05 significance level according to the pre-specified order of hierarchy. All safety endpoints were summarized descriptively. No statistical inference was applied to the safety endpoints. Plasma obicetrapib concentrations were summarized with descriptive statistics based on the PK Population.
# [2] = Phase 2 study of obicetrapib as adjunct to high-intensity statin therapy: safety and tolerability (adverse events, laboratory values, vital signs); format: in vivo, human; details: for Neoplasms benign, malignant and unspecified: including cysts and polyps; for AEs, total: subjects (%): safety population
# Experimental: Patients were randomly assigned to receive one of the three treatments investigative treatments. All treatments were to be taken once daily with food for 8 weeks. Safety was assessed throughout the trial by monitoring adverse events and concomitant medication use, 12-lead electrocardiograms (ECGs), vital signs, laboratory safety assessments and physical examinations. Additional assessments included salivary cortisol, plasma aldosterone, high-sensitivity C-reactive protein (hsCRP) and endothelin 1.
# Safety and tolerability profiles of obicetrapib assessed by clinical laboratory values and incidence of adverse events (AEs).
# as §1
# CETP = target: T1, CETP (Homo sapiens, UniProt P11597); details: TULIP, cited from earlier work
# T1 construct: endogenous in cells; host or cells: trial patients (in vivo, circulating plasma CETP)
# T1 sequence (P11597 18-493): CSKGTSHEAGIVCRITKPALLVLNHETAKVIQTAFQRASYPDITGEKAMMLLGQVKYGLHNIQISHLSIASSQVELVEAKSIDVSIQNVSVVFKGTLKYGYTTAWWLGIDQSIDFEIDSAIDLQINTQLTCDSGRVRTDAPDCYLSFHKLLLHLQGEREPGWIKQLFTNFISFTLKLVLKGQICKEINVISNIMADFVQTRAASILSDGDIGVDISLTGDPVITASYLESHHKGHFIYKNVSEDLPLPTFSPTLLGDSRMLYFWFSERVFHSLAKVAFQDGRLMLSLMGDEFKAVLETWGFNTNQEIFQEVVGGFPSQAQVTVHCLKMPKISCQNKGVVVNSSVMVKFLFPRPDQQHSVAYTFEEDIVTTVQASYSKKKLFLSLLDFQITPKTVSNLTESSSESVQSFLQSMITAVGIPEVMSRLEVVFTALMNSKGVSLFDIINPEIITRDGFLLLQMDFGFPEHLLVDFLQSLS
# [3] = 5 mg group (N=40), listed as obicetrapib
# [4] = 10 mg group (N=40), listed as obicetrapib
# [5] = either obicetrapib treatment group (5 mg, 10 mg) compared with placebo
smiles,measurement,setting,value
"CCOC(=O)N1c2ccc(C(F)(F)F)cc2[C@@H](N(Cc2cc(C(F)(F)F)cc(C(F)(F)F)c2)c2ncc(OCCCC(=O)O)cn2)C[C@H]1CC [Obicetrapib, (2R,4S)-4-{[3,5-bis(trifluoromethyl)benzyl]-[5-(3-carboxypropoxy)pyrimidin-2-yl]amino}-2-ethyl-6-trifluoromethyl-3,4-dihydro-2H-quinoline-1-carboxylic acid ethyl ester]",Plasma obicetrapib levels decreased by (median),"[1]; 5 mg group, 4 weeks after the end-of-treatment",92%
same,Plasma obicetrapib levels decreased by (median),"[1]; 5 mg group, 8 weeks after the end-of-treatment",98%
same,Plasma obicetrapib levels decreased by (median),"[1]; 5 mg group, 15 weeks after the end-of-treatment",99%
same,Plasma obicetrapib levels decreased by (median),"[1]; 10 mg group, 4 weeks after the end-of-treatment",93%
same,Plasma obicetrapib levels decreased by (median),"[1]; 10 mg group, 8 weeks after the end-of-treatment",98%
same,Plasma obicetrapib levels decreased by (median),"[1]; 10 mg group, 15 weeks after the end-of-treatment",99%
same,nearly completely cleared from circulation by (time post-treatment),[1]; after 8 weeks of once daily treatment,4-8 weeks
same,Basal cell carcinoma,[2]; 5 mg (n=40),0 (0.0) n (%)
same,Fatigue,[2]; 5 mg (n=40),2 (5.0) n (%)
same,Gastrointestinal disorders,[2]; 5 mg (n=40),3 (7.5) n (%)
same,General disorders and administration site conditions,[2]; 5 mg (n=40),3 (7.5) n (%)
same,Hypertension,[2]; 5 mg (n=40),2 (5.0) n (%)
same,Infections and infestations,[2]; 5 mg (n=40),1 (2.5) n (%)
same,"Injury, poisoning and procedural complications",[2]; 5 mg (n=40),3 (7.5) n (%)
same,Investigations,[2]; 5 mg (n=40),2 (5.0) n (%)
same,Metabolism and nutrition disorders,[2]; 5 mg (n=40),2 (5.0) n (%)
same,Muscle spasms,[2]; 5 mg (n=40),0 (0.0) n (%)
same,Musculoskeletal and connective tissue disorders,[2]; 5 mg (n=40),4 (10.0) n (%)
same,Nausea,[2]; 5 mg (n=40),1 (2.5) n (%)
same,Nervous system disorders,[2]; 5 mg (n=40),2 (5.0) n (%)
same,"Respiratory, thoracic and mediastinal disorders",[2]; 5 mg (n=40),2 (5.0) n (%)
same,Type 2 diabetes mellitus,[2]; 5 mg (n=40),2 (5.0) n (%)
same,Vascular disorders,[2]; 5 mg (n=40),2 (5.0) n (%)
same,"Neoplasms benign, malignant and unspecified",[2]; 5 mg (n=40),0 (0.0) n (%)
same,tolerability / safety profile,[2]; 5 mg and 10 mg on top of high intensity statin therapy,well tolerated with a safety profile similar to placebo
same,"AEs, related: number of events",[2]; 5 mg group (N=40),2
same,"AEs, related: subjects (%)",[2]; 5 mg group (N=40),2 (5.0)
same,"AEs, severe",[2]; 5 mg group (N=40),0
same,"AEs, total: number of events",[2]; 5 mg group (N=40),24
same,Deaths,[2]; 5 mg group (N=40),0
same,"SAEs, related",[2]; 5 mg group (N=40),0
same,"SAEs, total",[2]; 5 mg group (N=40),0
same,TEAEs leading to discontinuation of study drug,[2]; 5 mg group (N=40),0
same,TESAEs leading to discontinuation of study,[2]; 5 mg group (N=40),0
same,"AEs, total: subjects (%)",[2]; 5 mg group (N=40),13 (32.5)
same,"AEs, total: subjects (%)",[2]; [3],15
same,"AEs, related: subjects (%)",[2]; [3],2
same,Basal cell carcinoma,[2]; 10 mg (n=40),0 (0.0) n (%)
same,Fatigue,[2]; 10 mg (n=40),1 (2.5) n (%)
same,Gastrointestinal disorders,[2]; 10 mg (n=40),0 (0.0) n (%)
same,General disorders and administration site conditions,[2]; 10 mg (n=40),2 (5.0) n (%)
same,Hypertension,[2]; 10 mg (n=40),0 (0.0) n (%)
same,Infections and infestations,[2]; 10 mg (n=40),0 (0.0) n (%)
same,"Injury, poisoning and procedural complications",[2]; 10 mg (n=40),1 (2.5) n (%)
same,Investigations,[2]; 10 mg (n=40),0 (0.0) n (%)
same,Metabolism and nutrition disorders,[2]; 10 mg (n=40),0 (0.0) n (%)
same,Muscle spasms,[2]; 10 mg (n=40),0 (0.0) n (%)
same,Musculoskeletal and connective tissue disorders,[2]; 10 mg (n=40),4 (10.0) n (%)
same,Nausea,[2]; 10 mg (n=40),0 (0.0) n (%)
same,Nervous system disorders,[2]; 10 mg (n=40),2 (5.0) n (%)
same,"Respiratory, thoracic and mediastinal disorders",[2]; 10 mg (n=40),0 (0.0) n (%)
same,Type 2 diabetes mellitus,[2]; 10 mg (n=40),0 (0.0) n (%)
same,Vascular disorders,[2]; 10 mg (n=40),0 (0.0) n (%)
same,"Neoplasms benign, malignant and unspecified",[2]; 10 mg (n=40),0 (0.0) n (%)
same,"AEs, related: number of events",[2]; 10 mg group (N=40),1
same,"AEs, related: subjects (%)",[2]; 10 mg group (N=40),1 (2.5)
same,"AEs, severe",[2]; 10 mg group (N=40),0
same,"AEs, total: number of events",[2]; 10 mg group (N=40),11
same,Deaths,[2]; 10 mg group (N=40),0
same,"SAEs, related",[2]; 10 mg group (N=40),0
same,"SAEs, total",[2]; 10 mg group (N=40),0
same,TEAEs leading to discontinuation of study drug,[2]; 10 mg group (N=40),0
same,TESAEs leading to discontinuation of study,[2]; 10 mg group (N=40),0
same,"AEs, total: subjects (%)",[2]; 10 mg group (N=40),8 (20.0)
same,"AEs, total: subjects (%)",[2]; [4],8
same,"AEs, related: subjects (%)",[2]; [4],1
same,"laboratory parameters (chemistry, hematology, urinalysis)",[2]; [5],no signals in any laboratory parameters
same,vital signs,[2]; [5],no changes in vital signs
same,LDL-C reductions,"CETP; 1 mg for 12 weeks, mild dyslipidemia",27%
same,LDL-C reductions,"CETP; 2.5 mg for 12 weeks, mild dyslipidemia",33%
same,LDL-C reductions,"CETP; 5 mg for 12 weeks, mild dyslipidemia",45%
same,incremental LDL-C reduction compared with statin monotherapy,"CETP; 10 mg daily with 20 mg atorvastatin or 10 mg rosuvastatin, 12 weeks",up to 50%
same,LDL-C reductions,"CETP; 10 mg for 12 weeks, mild dyslipidemia",45%
same,LDL-C reductions,CETP; 10 mg obicetrapib plus 10 mg rosuvastatin,63%
same,LDL-C reductions,CETP; 10 mg obicetrapib plus 20 mg atorvastatin,68%
